Assay results: patent US8772297B2, “TGF-β signal transduction inhibitor” (Kyoto University, priority 2010, dated 2014)
One block for each compound: values may come before it.

What was measured:
[1] = tested on: TGF-β signal transduction (Smad3/Smad4 complex activation) in x9CAGA/CCL64 cells; assay: Evaluation of TGF-β signal transduction inhibitory activity (CAGA-luciferase reporter, x9CAGA/CCL64 cells stimulated with human TGF-β1); type: cell-based, mink; conditions: 0.5 ng/ml human TGF-β1; for inhibition at 50 µM: 50 μM test compound
Procedure: The biological activity of a compound was determined by measuring the activation of Smad3/Smad4 complex which is a transcription factor showing activation induced by TGF-β stimulation. That is, a reporter plasmid having a DNA sequence (CAGA sequence), which is activated by binding to Smad3/Smad4 complex, is linked to the upstream of the luciferase gene (luminescence enzyme) was prepared. Mink lung epithelial cells CCL64 (named as x9CAGA/CCL64 cells) stably incorporating this reporter plasmid were established. The x9CAGA/CCL64 cells were cultured in DMEM medium containing 10% FBS, penicillin (100 U/ml), streptomycin ([…]), and blasticidin S (1 μg/ml). The x9CAGA/CCL64 cells were seeded in a 96 well plate at a concentration of 1.0×10^4 cells/well, and cultured in a 5% CO2 incubator at 37° C. The next day, the medium was changed to DMEM medium containing 0.2% FBS, and the test compound was added. […] After culture for 16 hr, the cells were washed with PBS, and lysed with 30 μl of cell lysis solution. […] The luminescence level of each well was measured using a Packard EnVision plate reader. The TGF-β signal transduction inhibitory activity of each compound in the x9CAGA/CCL64 cells was calculated from the ratio of the measurement values of the test compound-free well and the well with addition.

[2] = tested on: mouse bile duct ligation induced hepatic fibrosis model; assay: Anti-fibrillization action in mouse bile duct ligation induced hepatic fibrosis model (BDL model); type: in vivo; conditions: ICR mice, tail vein once a day for 14 days, qPCR vs GAPDH, FIG. 4
Procedure: Hepatopathy caused by accumulation of bile in the liver and therewith associated liver fibrillization are induced by ligating the bile duct of mouse. The effect of the test compound on the hepatopathy and liver fibrillization associated therewith was evaluated. […]
mRNA was extracted from the hepatic tissue preserved in RNALater by using an RNA purification kit RNeasy Micro Kit (manufactured by QIAGEN), and the RNA concentration was determined using a spectrophotometer (Nano Drop). […] Using SYBR® Premix EX Taq™ (manufactured by TAKARA), a reaction mixture was prepared according to the package insert, qPCR reaction was performed using respective primers for αSMA and the internal standard GAPDH (manufactured by Invitrogen), and the mRNA expression level was quantified.

Compound: O=C(OCc1ccccc1)N1CCC(CNS(=O)(=O)c2cccc(S(=O)(=O)N3CCCCC3)c2)CC1 [Y053, 4-{[3-(piperidine-1-sulfonyl)benzenesulfonylamino]-methyl}-piperidine-1-carboxylic acid benzyl ester]
inhibition at 50 µM [1]: 67%

IC50 [1]: 3.9 µM
Compound: CCCC(=O)N1CCC(CNS(=O)(=O)c2cccc(S(=O)(=O)Nc3ccc(N(C)C)c(-c4ccco4)c3)c2)CC1 [Y639, 4-{[3-(4-dimethylamino-3-furan-2-yl-phenylsulfamoyl)benzenesulfonylamino]methyl}-1-butyryl-piperidine]

Compound: CC(C)(C)OC(=O)N1CCC(CNS(=O)(=O)c2cccc(S(=O)(=O)N3CCOCC3)c2)CC1 [Y081, 4-{[3-(morpholine-4-sulfonyl)benzenesulfonylamino]methyl}piperidine-1-carboxylic acid tert-butyl ester]
inhibition at 50 µM [1]: 45%

Compound: CC(C)(C)OC(=O)N1CCC(CNS(=O)(=O)c2cccc(S(N)(=O)=O)c2)CC1 [Y082, 4-[(3-sulfamoylbenzenesulfonylamino)methyl]piperidine-1-carboxylic acid tert-butyl ester]
inhibition at 50 µM [1]: 29%

Compound: CC(C)(C)OC(=O)N1CCN(S(=O)(=O)c2cccc(S(=O)(=O)N3CCCCC3)c2)CC1 [Y043, 4-[3-(piperidine-1-sulfonyl)benzenesulfonyl]piperazine-1-carboxylic acid tert-butyl ester]
inhibition at 50 µM [1]: 67%

Compound: CC(C)(C)OC(=O)N1CCC(CNS(=O)(=O)c2ccccc2)CC1 [Y083, 4-(benzenesulfonylaminomethyl)piperidine-1-carboxylic acid tert-butyl ester]
inhibition at 50 µM [1]: 24%

Compound: CC(=O)c1ccc(NS(=O)(=O)c2cccc(S(=O)(=O)NCC3CCN(C(=O)OC(C)(C)C)CC3)c2)cc1 [Y192, 4-{[3-(4-acetylphenylsulfamoyl)benzenesulfonylamino]methyl}piperidine-1-carboxylic acid tert-butyl ester]
inhibition at 20 µM ([1]; 20 μM test compound): > 18.4%

IC50 [1]: 66 µM
Compound: CN(C)c1ccc(NS(=O)(=O)c2cccc(S(=O)(=O)NCC3CCNCC3)c2)cc1-c1ccco1 [Y516, 4-{[3-(4-dimethylamino-3-furan-2-yl-phenylsulfamoyl)benzenesulfonylamino]methyl}piperidine]
mRNA expression level of α smooth muscle actin in the liver tissue [2]: significantly suppressed

Compound: CCN(CC)S(=O)(=O)c1cccc(S(=O)(=O)NCC2CCN(C(=O)OC(C)(C)C)CC2)c1 [Y080, 4-[(3-diethylsulfamoylbenzenesulfonylamino)methyl]piperidine-1-carboxylic acid tert-butyl ester]
inhibition at 50 µM [1]: 66%

Compound: CC(C)(C)OC(=O)N1CCC(CNS(=O)(=O)c2cccc(S(=O)(=O)N3CCCCC3)c2)CC1 [Y029, 4-{[3-(piperidine-1-sulfonyl)benzenesulfonylamino]methyl}piperidine-1-carboxylic acid tert-butyl ester]
inhibition at 50 µM [1]: 88%

Compound: Cc1ccc(N(C)S(=O)(=O)c2cccc(S(=O)(=O)N(C)CC3CCN(C(=O)OC(C)(C)C)CC3)c2)cc1 [Y191, 4-({methyl-[3-(methyl-p-tolylsulfamoyl)benzenesulfonyl]amino}methyl)piperidine-1-carboxylic acid tert-butyl ester]
inhibition at 20 µM ([1]; 20 μM test compound): 54%

Compound: CN(CC1CCN(C(=O)OC(C)(C)C)CC1)S(=O)(=O)c1cccc(S(=O)(=O)N(C)c2ccc(C(C)(C)C)cc2)c1 [Y205, 4-[({3-[(4-tert-butylphenyl)methylsulfamoyl]benzenesulfonyl}methylamino)-methyl]piperidine-1-carboxylic acid tert-butyl ester]
inhibition at 20 µM ([1]; 20 μM test compound): 60%

Compound: CC(O)c1ccc(NS(=O)(=O)c2cccc(S(=O)(=O)NCC3CCN(C(=O)OC(C)(C)C)CC3)c2)cc1 (centres unmarked) [Y195, 4-({3-[4-(1-hydroxyethyl)phenylsulfamoyl]benzenesulfonylamino}methyl)-piperidine-1-carboxylic acid tert-butyl ester]
inhibition at 20 µM ([1]; 20 μM test compound): > 12.2%

IC50 [1]: 0.8 µM
Compound: Cc1c(C)c(S(=O)(=O)NCC2CCN(C(=O)OC(C)(C)C)CC2)c(C)c(S(=O)(=O)Nc2ccc(C(C)(C)C)cc2)c1C [Y335, 4-{[3-(4-tert-butylphenylsulfamoyl)-2,4,5,6-tetramethylbenzenesulfonylamino]methyl}piperidine-1-carboxylic acid tert-butyl ester]

Compound: 4-{[3-(4-oxanylmethoxyphenylsulfamoyl)benzenesulfonylamino]methyl}-piperidine-1-carboxylic acid tert-butyl ester [Y198]
inhibitory activity (%) ([1]; 20 μM test compound): (>30.0%)

Compound: CC(C)(C)OC(=O)N1CCC(CNS(=O)(=O)c2cccc(S(=O)(=O)NCC3CCCCC3)c2)CC1 [Y101, 4-{[3-(cyclohexylmethylsulfamoyl)benzenesulfonylamino]methyl}-piperidine-1-carboxylic acid tert-butyl ester]
inhibition at 50 µM [1]: 74%
